# Results published in US10975080B2, “Compounds and compositions for inhibiting the activity of SHP2” (NOVARTIS AG, priority 2015, dated 2021).
# Molecular target: SHP2 (Homo sapiens (Human), UniProt Q06124)
# Experiment: SHP2 Allosteric Inhibition Assay
# Assay type: biochemical
# Conditions: 0.5 nM SHP2 with 0.5 μM peptide IRS1_pY1172(dPEG8)pY1222; surrogate substrate DiFMUP; 25° C.; read-out: IC50
# Source text: SHP2 Allosteric Inhibition Assay
# SHP2 is allosterically activated through binding of bis-tyrosyl-phosphorylated peptides to its Src Homology 2 (SH2) domains. The latter activation step leads to the release of the auto-inhibitory interface of SHP2, which in turn renders the SHP2 protein tyrosine phosphatase (PTP) active and available for substrate recognition and reaction catalysis. The catalytic activity of SHP2 was monitored using the surrogate substrate DiFMUP in a prompt fluorescence assay format.
# After 30-60 minutes incubation at 25° C., the surrogate substrate DiFMUP (Invitrogen, cat #D6567) was added to the reaction and incubated at 25° C. for 30 minutes. […] The inhibitor dose response curves were analyzed using normalized IC50 regression curve fitting with control based normalization.
# SHP2, sequence (Q06124 whole entry): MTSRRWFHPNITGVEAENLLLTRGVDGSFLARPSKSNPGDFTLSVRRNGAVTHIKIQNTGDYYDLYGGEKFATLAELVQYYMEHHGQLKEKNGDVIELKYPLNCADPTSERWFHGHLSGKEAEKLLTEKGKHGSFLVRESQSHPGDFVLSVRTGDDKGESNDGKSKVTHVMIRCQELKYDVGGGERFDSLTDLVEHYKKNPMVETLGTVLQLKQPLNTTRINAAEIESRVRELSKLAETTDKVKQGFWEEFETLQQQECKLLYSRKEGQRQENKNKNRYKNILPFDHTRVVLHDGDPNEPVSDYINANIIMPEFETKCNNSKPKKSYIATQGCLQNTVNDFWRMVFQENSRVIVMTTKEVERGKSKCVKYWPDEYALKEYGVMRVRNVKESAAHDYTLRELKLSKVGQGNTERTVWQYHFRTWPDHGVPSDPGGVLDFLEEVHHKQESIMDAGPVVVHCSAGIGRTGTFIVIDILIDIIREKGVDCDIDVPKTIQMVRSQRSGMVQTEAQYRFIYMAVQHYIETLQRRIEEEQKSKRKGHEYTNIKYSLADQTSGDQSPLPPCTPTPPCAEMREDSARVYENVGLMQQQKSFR
row,SMILES,IC50 [nM]
1,"COc1nccc(-c2c[nH]c3nc(N4CCC5(CC4)CO[C@@H](C)[C@H]5N)[nH]c(=O)c23)c1Cl [Example 10, 2-((3S,4S)-4-amino-3-methyl-2-oxa-8-azaspiro[4.5]decan-8-yl)-5-(3-chloro-2-methoxypyridin-4-yl)-3H-pyrrolo[2,3-d]pyrimidin-4(7H)-one]",26
2,"COc1nccc(-c2c[nH]c3nc(N4CCC5(CC4)CO[C@@H](C)[C@H]5N)n(C)c(=O)c23)c1Cl [Example 9, 2-((3S,4S)-4-amino-3-methyl-2-oxa-8-azaspiro[4.5]decan-8-yl)-5-(3-chloro-2-methoxypyridin-4-yl)-3-methyl-3,7-dihydro-4H-pyrrolo[2,3-d]pyrimidin-4-one]",26
3,"Cn1c(N2CCC3(CCC[C@H]3N)CC2)nc2n[nH]c(-c3cccc(Cl)c3Cl)c2c1=O [Example 2, (R)-6-(1-amino-8-azaspiro[4.5]decan-8-yl)-3-(2,3-dichlorophenyl)-5-methyl-2H-pyrazolo[3,4-d]pyrimidin-4(5H)-one]",25.5

# Same assay, conditions: 0.5 nM SHP2 with 0.5 μM peptide IRS1_pY1172(dPEG8)pY1222; surrogate substrate DiFMUP; 25° C.; read-out: SHP2 IC50
row,SMILES,IC50 [nM]
1,"C[C@@H]1OCC2(CCN(c3nc4[nH]nc(-c5cccc(N)c5)c4c(=O)n3C)CC2)[C@@H]1N [Example 55, 6-((3S,4S)-4-amino-3-methyl-2-oxa-8-azaspiro[4.5]decan-8-yl)-3-(3-aminophenyl)-5-methyl-1,5-dihydro-4H-pyrazolo[3,4-d]pyrimidin-4-one]",83
2,"Cn1c(N2CCC3(CC2)COC[C@H]3N)nc2[nH]nc(-c3ccncc3)c2c1=O [Example 69, (S)-6-(4-amino-2-oxa-8-azaspiro[4.5]decan-8-yl)-5-methyl-3-(pyridin-4-yl)-1,5-dihydro-4H-pyrazolo[3,4-d]pyrimidin-4-one]",39
3,"C[C@H]1C[C@@H](N)C2(CCN(c3nc4[nH]nc(-c5ccncc5)c4c(=O)n3C)CC2)C1 [Example 36, 6-((1R,3R)-1-amino-3-methyl-8-azaspiro[4.5]decan-8-yl)-5-methyl-3-(pyridin-4-yl)-1,5-dihydro-4H-pyrazolo[3,4-d]pyrimidin-4-one]",9
4,"Cn1c(N2CCC3(CC2)C[C@H](F)C[C@H]3N)nc2[nH]nc(-c3ccccc3)c2c1=O [Example 39, 6-((1R,3S)-1-amino-3-fluoro-8-azaspiro[4.5]decan-8-yl)-5-methyl-3-phenyl-1,5-dihydro-4H-pyrazolo[3,4-d]pyrimidin-4-one]",37
5,"Cn1c(N2CCC(C)(CN)CC2)nc2[nH]nc(-c3ccncc3Cl)c2c1=O [Example 28, 6-(4-(aminomethyl)-4-methylpiperidin-1-yl)-3-(3-chloropyridin-4-yl)-5-methyl-1,5-dihydro-4H-pyrazolo[3,4-d]pyrimidin-4-one]",312
6,"Cn1c(N2CCC(C)(CN)CC2)nc2[nH]nc(-c3ccnc(Cl)c3Cl)c2c1=O [Example 25, 6-(4-(aminomethyl)-4-methylpiperidin-1-yl)-3-(2,3-dichloropyridin-4-yl)-5-methyl-1,5-dihydro-4H-pyrazolo[3,4-d]pyrimidin-4-one]",100
7,"Cc1nc(N)ccc1-c1n[nH]c2nc(N3CCC4(CC3)CC(F)(F)C[C@H]4N)n(C)c(=O)c12 [Example 49, (R)-3-(6-amino-2-methylpyridin-3-yl)-6-(1-amino-3,3-difluoro-8-azaspiro[4.5]decan-8-yl)-5-methyl-1,5-dihydro-4H-pyrazolo[3,4-d]pyrimidin-4-one]",9
8,"COc1ccc(-c2n[nH]c3nc(N4CCC5(CC4)CO[C@@H](C)[C@H]5N)n(C)c(=O)c23)cc1F [Example 59, 6-((3S,4S)-4-amino-3-methyl-2-oxa-8-azaspiro[4.5]decan-8-yl)-3-(3-fluoro-4-methoxyphenyl)-5-methyl-1,5-dihydro-4H-pyrazolo[3,4-d]pyrimidin-4-one]",13
9,"CNc1cc(-c2n[nH]c3nc(N4CCC5(CC4)CO[C@@H](C)[C@H]5N)n(C)c(=O)c23)ccn1 [Example 46, 6-((3S,4S)-4-amino-3-methyl-2-oxa-8-azaspiro[4.5]decan-8-yl)-5-methyl-3-(2-(methylamino)pyridin-4-yl)-1,5-dihydro-4H-pyrazolo[3,4-d]pyrimidin-4-one]",50
10,"C[C@@H]1OCC2(CCN(c3nc4[nH]nc(-c5ccc(N)nc5Cl)c4c(=O)n3C)CC2)[C@@H]1N [Example 52, 3-(6-amino-2-chloropyridin-3-yl)-6-((3S,4S)-4-amino-3-methyl-2-oxa-8-azaspiro[4.5]decan-8-yl)-5-methyl-1,5-dihydro-4H-pyrazolo[3,4-d]pyrimidin-4-one]",23
11,"C[C@@H]1OCC2(CCN(c3nc4[nH]nc(-c5ccnc(N6CC[C@@H](O)C6)c5Cl)c4c(=O)n3C)CC2)[C@@H]1N [Example 43, 6-((3S,4S)-4-amino-3-methyl-2-oxa-8-azaspiro[4.5]decan-8-yl)-3-(3-chloro-2-((R)-3-hydroxypyrrolidin-1-yl)pyridin-4-yl)-5-methyl-1,5-dihydro-4H-pyrazolo[3,4-d]pyrimidin-4-one]",84
12,"Cc1nc(N)ccc1-c1n[nH]c2nc(N3CCC4(CC3)CO[C@@H](C)[C@H]4N)n(C)c(=O)c12 [Example 47, 3-(6-amino-2-methylpyridin-3-yl)-6-((3S,4S)-4-amino-3-methyl-2-oxa-8-azaspiro[4.5]decan-8-yl)-5-methyl-1,5-dihydro-4H-pyrazolo[3,4-d]pyrimidin-4-one]",37
13,"C[C@@H]1OCC2(CCN(c3nc4[nH]nc(-c5cccc(F)c5)c4c(=O)n3C)CC2)[C@@H]1N [Example 61, 6-((3S,4S)-4-amino-3-methyl-2-oxa-8-azaspiro[4.5]decan-8-yl)-3-(3-fluorophenyl)-5-methyl-1,5-dihydro-4H-pyrazolo[3,4-d]pyrimidin-4-one]",14
14,"COc1ccc(-c2n[nH]c3nc(N4CCC5(CC4)CO[C@@H](C)[C@H]5N)n(C)c(=O)c23)cn1 [Example 64, 6-((3S,4S)-4-amino-3-methyl-2-oxa-8-azaspiro[4.5]decan-8-yl)-3-(6-methoxypyridin-3-yl)-5-methyl-1,5-dihydro-4H-pyrazolo[3,4-d]pyrimidin-4-one]",24
15,"Cn1c(N2CCC3(CC2)C[C@H](F)C[C@H]3N)nc2[nH]nc(-c3ccnc(NC4CC4)c3Cl)c2c1=O [Example 38, 6-((1R,3S)-1-amino-3-fluoro-8-azaspiro[4.5]decan-8-yl)-3-(3-chloro-2-(cyclopropylamino)pyridin-4-yl)-5-methyl-1,5-dihydro-4H-pyrazolo[3,4-d]pyrimidin-4-one]",11
16,"C[C@@H]1OCC2(CCN(c3nc4[nH]nc(-c5ccnc(NC6CCC6)c5Cl)c4c(=O)n3C)CC2)[C@@H]1N [Example 29, 6-((3S,4S)-4-amino-3-methyl-2-oxa-8-azaspiro[4.5]decan-8-yl)-3-(3-chloro-2-(cyclobutylamino)pyridin-4-yl)-5-methyl-1,5-dihydro-4H-pyrazolo[3,4-d]pyrimidin-4-one]",35
17,"Cn1c(N2CCC3(CCC[C@H]3N)CC2)nc2[nH]nc(-c3ccnc(N)c3Cl)c2c1=O [Example 16, (R)-3-(2-amino-3-chloropyridin-4-yl)-6-(1-amino-8-azaspiro[4.5]decan-8-yl)-5-methyl-1,5-dihydro-4H-pyrazolo[3,4-d]pyrimidin-4-one]",360
18,"COc1nccc(-c2n[nH]c3nc(N4CCC5(CC4)CO[C@@H](C)[C@H]5N)n(C)c(=O)c23)c1Cl [Example 18, 6-((3S,4S)-4-amino-3-methyl-2-oxa-8-azaspiro[4.5]decan-8-yl)-3-(3-chloro-2-methoxypyridin-4-yl)-5-methyl-1,5-dihydro-4H-pyrazolo[3,4-d]pyrimidin-4-one]",43
